Experimental data reported in patent US11999727B2 (Tango Therapeutics, Inc., priority 2020, dated 2024).
Where two headings read alike, the source gives them in different places.

How the values were obtained:
PRMT5 [1] = biological target: T1, PRMT5 (Homo sapiens, UniProt O14744); test: PRMT5 biochemical IC50 assay with no cofactor; details: PRMT5, no cofactor; read-out: No Cofactor/rel IC50
T1 construct: purchased Viva (custom protein)
Source text: Table 1 indicates IC50 values (μM) against PRMT5 for exemplary compounds in the presence of SAM as cofactor, with no cofactor, and with MTA as cofactor, respectively (columns 4-6). […] Ki values can be calculated from the IC50 values as described in the Examples section. As detailed in the Examples section, for the assay performed in the presence of SAM, IC50=Ki×1.5 (Ki=IC50/1.5).

PRMT5 [2] = biological target: T1, PRMT5; test: PRMT5 biochemical IC50 assay with SAM as cofactor; details: PRMT5, SAM as cofactor; read-out: SAM IC50
[3] = tested on: HAP1 MTAP-deleted cell line; test: Viability assay, MTAP-deleted cell line; format: cell-based; details: Homo sapiens, read-out: HAP1 MTAP deleted viability
Source text: Table 1 additionally indicates IC50 values in a viability assay for the MTAP-deleted cell line (column 10), indicating the effect of treatment with compound on cell survival.

PRMT5 [4] = biological target: T1, PRMT5; test: PRMT5 biochemical IC50 assay with MTA as cofactor; details: PRMT5, MTA as cofactor; read-out: MTA IC50
[5] = HAP1, viability assay, MTAP-deleted cell line
[6] = HAP1, viability IC50, MTAP-deleted cell line
[7] = HAP1, viability assay, HAP1 MTAP-deleted

T1 sequence (O14744 whole entry): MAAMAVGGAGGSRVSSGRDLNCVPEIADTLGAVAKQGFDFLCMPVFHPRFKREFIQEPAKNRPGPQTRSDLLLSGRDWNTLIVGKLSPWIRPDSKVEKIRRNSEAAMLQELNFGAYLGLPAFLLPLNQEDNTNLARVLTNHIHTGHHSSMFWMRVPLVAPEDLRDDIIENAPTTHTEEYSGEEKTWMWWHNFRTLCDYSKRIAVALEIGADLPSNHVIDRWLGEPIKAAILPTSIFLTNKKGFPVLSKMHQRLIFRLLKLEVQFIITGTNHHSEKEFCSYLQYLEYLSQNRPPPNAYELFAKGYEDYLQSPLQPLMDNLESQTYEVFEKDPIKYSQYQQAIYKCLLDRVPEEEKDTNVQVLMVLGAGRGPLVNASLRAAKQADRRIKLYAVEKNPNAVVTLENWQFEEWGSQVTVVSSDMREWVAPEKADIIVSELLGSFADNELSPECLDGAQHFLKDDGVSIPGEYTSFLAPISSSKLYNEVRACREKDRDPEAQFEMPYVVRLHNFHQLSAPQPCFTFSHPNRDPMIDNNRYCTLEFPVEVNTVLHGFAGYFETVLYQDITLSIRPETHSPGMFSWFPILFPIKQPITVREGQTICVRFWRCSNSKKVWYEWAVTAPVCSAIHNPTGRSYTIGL
T1 sequence (Q9BQA1 whole entry partner): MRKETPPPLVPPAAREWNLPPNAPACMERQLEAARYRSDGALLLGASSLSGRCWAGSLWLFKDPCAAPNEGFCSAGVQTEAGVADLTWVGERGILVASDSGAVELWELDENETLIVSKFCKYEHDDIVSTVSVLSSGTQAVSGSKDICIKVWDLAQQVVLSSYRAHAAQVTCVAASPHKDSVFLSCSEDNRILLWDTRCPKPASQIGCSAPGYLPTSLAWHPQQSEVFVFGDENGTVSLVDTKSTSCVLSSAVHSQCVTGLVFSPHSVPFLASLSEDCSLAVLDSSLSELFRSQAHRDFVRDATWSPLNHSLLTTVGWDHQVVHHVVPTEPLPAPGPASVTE

SMILES | IC50 (PRMT5 [1]) [nM] | IC50 (PRMT5 [2]) [nM] | IC50 [3, 5] [nM] | IC50 (PRMT5 [4]) [nM] | IC50 [3, 6] [nM] | IC50 [3, 7] [nM]
C[C@H]1CC[C@H](c2ccc(NCC(F)(F)F)cc2)N(C(=O)C(=O)Nc2cncc(C(N)=O)c2)C1 (single isomer, unassigned) [Compound 456] | > 500 | > 500 | > 10000 | > 500 |  | 
COc1ncc(NC(=O)C(=O)N2C[C@@H](C)CC[C@@H]2c2ccc3c(c2)CCC(=O)N3)cc1C(N)=O (single isomer, unassigned) [Compound 673] | > 500 | > 500 |  | > 500 | > 10000 | 
Cc1cc(NC(=O)C(=O)N2C[C@H](C)CC[C@H]2c2cc(Cl)cc(C(F)(F)F)c2)cnc1N (single isomer, unassigned) [Compound 679] | > 500 | > 500 |  | 50 to 500 | > 10000 | 
C[C@H]1CC[C@H](c2cc(F)c3[nH]ncc3c2)N(C(=O)C(=O)Nc2cncc(C(N)=O)c2)C1 (single isomer, unassigned) [Compound 680] | > 500 | > 500 |  | > 500 | > 10000 | 
Cc1cc(NC(=O)C(=O)N2C[C@@H](C)CC[C@@H]2c2cc(F)cc(Cl)c2)cnc1N (single isomer, unassigned) [Compound 682] | > 500 | > 500 |  | 50 to 500 | > 10000 | 
CCc1cc(NC(=O)C(=O)N2C[C@H](C)CC[C@H]2c2ccc3c(c2)C(=O)NC3)cnc1N (single isomer, unassigned) [Compound 695] | > 500 | > 500 |  | > 500 | > 10000 | 
Cc1ncc(NC(=O)C(=O)N2C[C@@H](C)CC[C@@H]2c2ccc3c(c2)CCC(=O)N3)cc1C(F)(F)F (single isomer, unassigned) [Compound 698] | > 500 | > 500 |  | > 500 | > 10000 | 
CCc1cc(NC(=O)C(=O)N2C[C@H](C)CC[C@H]2c2ccc3c(c2)CNC3=O)cnc1N (single isomer, unassigned) [Compound 699, N-(6-amino-5-ethylpyridin-3-yl)-2-(5-methyl-2-(1-oxoisoindolin-5-yl)piperidin-1-yl)-2-oxoacetamide] | > 500 | > 500 |  | > 500 | > 10000 | 
Cc1cc(NC(=O)C(=O)N2C[C@H](C)CC[C@H]2c2cc(F)cc(F)c2)cnc1N (single isomer, unassigned) [Compound 712, N-(6-amino-5-methylpyridin-3-yl)-2-(2-(3,5-difluorophenyl)-5-methylpiperidin-1-yl)-2-oxoacetamide] | > 500 | > 500 |  | > 500 |  | > 10000
Cc1cc(NC(=O)C(=O)N2C[C@@H](C)C(F)(F)C[C@@H]2c2ccccc2)cnc1N (single isomer, unassigned) [Compound 713] | > 500 | > 500 |  | > 500 |  | > 10000
CNS(=O)(=O)c1ccc([C@@H]2CC[C@@H](C)CN2C(=O)C(=O)Nc2cncc(C(N)=O)c2)cc1 (single isomer, unassigned) [Compound 723] | > 500 | > 500 |  | > 500 |  | > 10000
CC(=O)Nc1ccc([C@H]2CC[C@H](C)CN2C(=O)C(=O)Nc2cncc(C(N)=O)c2)cn1 (single isomer, unassigned) [Compound 905] | > 500 | > 500 | > 10000 | > 500 |  | 
Cc1cc(NC(=O)C(=O)N2C[C@H](C)CC[C@H]2c2ccc(S(C)(=O)=O)cc2)cnc1N (single isomer, unassigned) [Compound 938] | > 500 | > 500 | > 10000 | > 500 |  | 
Cc1cc(NC(=O)C(=O)N2C[C@@H](C)CC[C@@H]2c2cccc3c2CCN3)cnc1N (single isomer, unassigned) [Compound 957] | > 500 | > 500 | > 10000 | > 500 |  | 
Cc1cc(NC(=O)C(=O)N2C[C@@H](C)CC[C@@H]2c2ccc3[nH]nc(N)c3c2)cnc1C (single isomer, unassigned) [Compound 958] | > 500 | > 500 | > 10000 | > 500 |  | 
C[C@H]1CC[C@H](c2cc3cn[nH]c3s2)N(C(=O)C(=O)Nc2cncc(C(N)=O)c2)C1 (single isomer, unassigned) [Compound 971, 5-(2-(5-methyl-2-(1H-thieno[2,3-c]pyrazol-5-yl)piperidin-1-yl)-2-oxoacetamido)nicotinamide] | > 500 | > 500 | > 10000 | > 500 |  | 
Cc1cc(NC(=O)C(=O)N2C[C@@H](C)CC[C@@H]2c2ccc(S(C)(=O)=O)cc2)cnc1N (single isomer, unassigned) [Compound 976] | 50 to 500 | 50 to 500 | 1000 to 10000 | < 50 |  | 

SMILES | IC50 (PRMT5 [1]) [nM] | IC50 (PRMT5 [2]) [nM] | IC50 [3, 5] [nM] | IC50 (PRMT5 [4]) [nM] | IC50 [3, 6] [nM] | IC50 [3, 7] [nM]
Cc1cc(NC(=O)C(=O)N2C[C@H](C)CC[C@H]2c2ccc3sc(N)nc3c2)cnc1N (single isomer, unassigned) [Compound 981] | > 500 | > 500 | > 10000 | > 500 |  | 
CCc1cc(NC(=O)C(=O)N2C[C@@H](C)CC[C@@H]2c2ccc(NS(C)(=O)=O)nc2)cnc1N (single isomer, unassigned) [Compound 983] | > 500 | > 500 | > 10000 | > 500 |  | 
CCc1cc(NC(=O)C(=O)N2C[C@H](C)CC[C@H]2c2ccc3sc(N)nc3c2)cnc1N (single isomer, unassigned) [Compound 984] | > 500 | > 500 | > 10000 | > 500 |  | 
C[C@H]1CC[C@H](c2ccc(NS(C)(=O)=O)nc2)N(C(=O)C(=O)Nc2cncc(C(N)=O)c2)C1 (single isomer, unassigned) [Compound 985] | > 500 | > 500 | > 10000 | > 500 |  | 
C[C@H]1CC[C@H](c2ccc3sc(N)nc3c2)N(C(=O)C(=O)Nc2cncc(C(N)=O)c2)C1 (single isomer, unassigned) [Compound 987] | 50 to 500 | 50 to 500 | 1000 to 10000 | < 50 |  | 
Cc1cc(NC(=O)C(=O)N2C[C@H](C)CC[C@H]2c2ccc3c(c2)CCNC3=O)cnc1N (single isomer, unassigned) [Compound 994] | > 500 | > 500 | > 10000 | > 500 |  | 
CCc1cc(NC(=O)C(=O)N2C[C@@H](C)CC[C@@H]2c2ccc3sc(N)nc3c2)cnc1N (single isomer, unassigned) [Compound 996] | < 50 | 50 to 500 | < 1000 | < 50 |  | 
COc1ncc(NC(=O)C(=O)N2C[C@@H](C)CC[C@@H]2c2ccc(NS(C)(=O)=O)nc2)cc1C(N)=O (single isomer, unassigned) [Compound 999] | > 500 | > 500 | > 10000 | > 500 |  | 
C[C@@H]1CC[C@@H](c2ccc3sc(N)nc3c2)N(C(=O)C(=O)Nc2cncc(C(N)=O)c2)C1 (single isomer, unassigned) [Compound 1001] | > 500 | > 500 | > 10000 | > 500 |  | 
Cc1cc(NC(=O)C(=O)N2C[C@@H](C)CC[C@@H]2c2ccc3cc[nH]c(=O)c3c2)cnc1N (single isomer, unassigned) [Compound 1021] | > 500 | > 500 | > 10000 | > 500 |  | 
CCc1cc(NC(=O)C(=O)N2C[C@@H](C)CC[C@@H]2c2ccc3sc(C(F)(F)F)nc3c2)cnc1N (single isomer, unassigned) [Compound 1022] | < 50 | 50 to 500 | < 1000 | < 50 |  | 
CCc1cc(NC(=O)C(=O)N2C[C@H](C)CC[C@H]2c2ccc3sc(C(F)(F)F)nc3c2)cnc1N (single isomer, unassigned) [Compound 1027] | > 500 | > 500 | > 10000 | > 500 |  | 
COc1ncc(NC(=O)C(=O)N2C[C@H](C)CC[C@H]2c2ccc3sc(C(F)(F)F)nc3c2)cc1C(N)=O (single isomer, unassigned) [Compound 1030] | > 500 | > 500 | > 10000 | > 500 |  | 
Cc1cc(NC(=O)C(=O)N2C[C@H](C)CC[C@H]2c2ccc3cc[nH]c(=O)c3c2)cnc1N (single isomer, unassigned) [Compound 1031] | < 50 | < 50 | < 1000 | < 50 |  | 
Cc1cc(NC(=O)C(=O)N2C[C@@H](C)C(F)(F)C[C@@H]2c2cccc3[nH]ncc23)cnc1N (single isomer, unassigned) [Compound 1034] | > 500 | > 500 | > 10000 | > 500 |  | 
Cc1cc(NC(=O)C(=O)N2C[C@H](C)CC[C@H]2c2cccc3[nH]ccc23)cnc1N (single isomer, unassigned) [Compound 1035] | 50 to 500 | 50 to 500 | < 1000 | < 50 |  | 
Cc1cc(NC(=O)C(=O)N2C[C@@H](C)CC[C@@H]2c2cccc3[nH]ccc23)cnc1N (single isomer, unassigned) [Compound 1038] | > 500 | > 500 | > 10000 | > 500 |  | 
